Assay results published in ChEMBL document CHEMBL1201862, “PubChem BioAssay data set” (2004).
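Growth conditions: 96-well plates. Treatment: test compound, 48 hours, 5 concentrations. Analysis: linear interpolation between bracketing concentrations; unreached endpoints set to highest concentration. GI50: concentration for 50% inhibition of growth.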 The source made the active and inactive calls. Rule as the data show it: active = GI50 up to about 1.1 µM and inactive = higher.

How the values were obtained:
Test in all cases: DTP human tumour cell line panel, 48 h
[1] = test system: 786-0
[2] = test system: A498
[3] = test system: A549
[4] = test system: ACHN
[5] = test system: BT-549
[6] = test system: EKVX
[7] = test system: HCT-116
[8] = test system: HT-29
[9] = test system: MDA-MB-231
[10] = test system: MDA-MB-435
[11] = test system: Malme-3M
[12] = test system: NCI-H460
[13] = test system: NCI/ADR-RES
[14] = test system: OVCAR-8
[15] = test system: PC-3
[16] = test system: RPMI-8226
[17] = test system: SF-539
[18] = test system: TK-10
[19] = test system: UACC-257
[20] = test system: UACC-62

Measured: GI50

CC(=O)O[C@@H]1C[C@@]23C[C@@]24CC[C@H](OC2OCC(O)C(O)C2O)C(C)(C)[C@@H]4CC=C3[C@]2(C)C[C@@H]3OC4(C[C@@H](C)[C@@H]3[C@@]12C)OC(O)[C@@]1(C)O[C@@H]41 (stereo not given in full)
inactive: [1] 25.2 µM | [2] 32.1 µM | [3] 48.9 µM | [4] 43.5 µM | [5] 27.9 µM | [6] 33.4 µM | [7] 19.4 µM | [8] 33.2 µM | [9] 21.1 µM | [10] 32.4 µM | [11] 33.2 µM | [12] 25.3 µM | [13] 43.9 µM | [14] 41.7 µM | [15] 22.9 µM | [16] 19.6 µM | [17] 20.8 µM | [18] 36 µM | [19] 26.9 µM | [20] 21.7 µM

C=C1CC(CNc2cc(Cl)nc(N)n2)C1
inactive: [1] > 100 µM | [2] 1.99 µM | [3] > 100 µM | [4] > 100 µM | [5] 77.3 µM | [6] 23.1 µM | [7] > 10 µM | [8] > 100 µM | [9] > 100 µM | [10] > 100 µM | [11] > 100 µM | [12] > 100 µM | [13] 62.7 µM | [14] > 100 µM | [15] > 100 µM | [16] 49.9 µM | [17] > 100 µM | [18] > 100 µM | [19] 39.6 µM | [20] > 100 µM

C=CCOC(=O)[C@@H]1C[C@@H](OC(C)(C)C)CN1C(=O)[C@@H]1[C@H]2OC(C)(C)O[C@H]2CN1C(=O)OCC1c2ccccc2-c2ccccc21
inactive: [1] 5.46 µM | [2] 15.7 µM | [3] 15.3 µM | [4] 15.9 µM | [5] 20.1 µM | [6] 5.05 µM | [7] 17.4 µM | [8] 17.2 µM | [9] 17.9 µM | [10] 17.2 µM | [11] 18.2 µM | [12] 10.5 µM | [13] 3.68 µM | [14] 5.87 µM | [15] 15.7 µM | [16] 6.19 µM | [17] 14.8 µM | [18] 18.4 µM | [19] 17.5 µM | [20] 17.7 µM

CCOCc1nc2c(OC)c(-c3nc4ccc(N5CCN(C)CC5)cc4[nH]3)cc(OC)c2[nH]1
inactive: [1] 31 µM | [2] 37 µM | [3] 46.9 µM | [4] 57.4 µM | [5] 66.4 µM | [6] > 100 µM | [7] 34 µM | [8] 27.8 µM | [9] 28.2 µM | [10] 20.6 µM | [11] 18 µM | [12] 26.4 µM | [13] > 100 µM | [14] 80.2 µM | [15] 63.4 µM | [16] 40.1 µM | [17] 19.3 µM | [18] 53.3 µM | [19] 19 µM | [20] 19.6 µM

O=c1c2ccccc2c2ccccc2c(=O)n1Cc1ccc2c(c1)OCO2
inactive: [1] 27 µM | [2] > 70.5 µM | [3] 32.1 µM | [4] 45.4 µM | [5] 20.9 µM | [6] 36.1 µM | [7] 19.1 µM | [8] 22.6 µM | [9] > 96.2 µM | [10] 6.17 µM | [11] 67.9 µM | [12] 24.6 µM | [13] 24.9 µM | [14] 45.7 µM | [15] 42.8 µM | [16] 15.9 µM | [17] 27.1 µM | [18] > 100 µM | [19] 57.1 µM | [20] 21.6 µM

COC(=O)[C@]1(c2cc3ccccc3n2S(=O)(=O)c2ccccc2)CC2CN(C(C)=O)C1CC2=O (stereo not given in full)
active: [16] 0.65 µM
inactive: [1] 1.28 µM | [2] 9.64 µM | [3] 3.05 µM | [4] 1.91 µM | [5] 2.61 µM | [6] 2.02 µM | [7] 1.89 µM | [8] 1.96 µM | [9] 2.58 µM | [10] 2.34 µM | [11] 2.77 µM | [12] 3.14 µM | [13] 2.87 µM | [14] 3.43 µM | [15] 1.64 µM | [17] 2.91 µM | [18] 7.73 µM | [19] 2.77 µM | [20] 1.67 µM

COC(=O)Nc1nc2cc(S(=O)(=O)Nc3ccccn3)ccc2[nH]1
inactive: [1] 49.8 µM | [2] 61.1 µM | [3] 80.7 µM | [4] 63 µM | [5] 30.9 µM | [6] > 100 µM | [7] 49.9 µM | [8] 43.1 µM | [9] > 100 µM | [10] 14.1 µM | [11] 58.5 µM | [12] 34.6 µM | [13] 34.1 µM | [14] 46.5 µM | [15] 65.8 µM | [16] 14 µM | [17] 22.7 µM | [18] 33.3 µM | [19] 17.7 µM | [20] 42.6 µM

N#Cc1cc([N+](=O)[O-])ccc1NC(=O)/C(=N\NC(=O)c1ccncc1)C(c1cnc2ccc([N+](=O)[O-])cc2n1)[N+](=O)[O-] (stereo not given)
active: [10] 1.03 µM
inactive: [1] 2.44 µM | [2] 8.49 µM | [3] 3.64 µM | [4] 2.54 µM | [5] 1.85 µM | [6] 9.31 µM | [7] 2.43 µM | [8] 19.2 µM | [9] 1.99 µM | [11] 1.31 µM | [12] 2.13 µM | [13] 6.41 µM | [14] 3.1 µM | [15] 3.33 µM | [16] 5.89 µM | [17] 2.07 µM | [18] 14.2 µM | [19] 1.55 µM | [20] 1.52 µM

O=C(OCc1ccccc1)N1CCNCCNCCN(C(=O)OCc2ccccc2)CCNCC1
inactive: [1] 14.3 µM | [2] 20.8 µM | [3] 63.4 µM | [4] 39.9 µM | [5] 60.7 µM | [6] 24 µM | [7] 14 µM | [8] 12.1 µM | [9] 16.1 µM | [10] 16.1 µM | [11] 20.1 µM | [12] 21.2 µM | [13] 50.5 µM | [14] 17.3 µM | [15] 41.6 µM | [16] 19.5 µM | [17] 18.5 µM | [18] 24.8 µM | [19] 16.5 µM | [20] 17.7 µM

Oc1[nH]c(NCc2ccc(Cl)cc2)nc2ncnc1-2
inactive: [1] > 100 µM | [2] > 100 µM | [3] > 100 µM | [4] > 100 µM | [5] > 100 µM | [6] > 100 µM | [7] > 100 µM | [8] > 100 µM | [9] > 100 µM | [10] > 100 µM | [11] > 100 µM | [12] > 100 µM | [13] > 100 µM | [14] > 100 µM | [15] > 100 µM | [16] > 100 µM | [17] > 100 µM | [18] > 100 µM | [19] > 100 µM | [20] > 100 µM
